Assay [1] addresses T1, Serotonin 3 (5-HT3) receptor (Rattus norvegicus, UniProt P35563+Q9JJ16).
T1 sequence (P35563 whole entry): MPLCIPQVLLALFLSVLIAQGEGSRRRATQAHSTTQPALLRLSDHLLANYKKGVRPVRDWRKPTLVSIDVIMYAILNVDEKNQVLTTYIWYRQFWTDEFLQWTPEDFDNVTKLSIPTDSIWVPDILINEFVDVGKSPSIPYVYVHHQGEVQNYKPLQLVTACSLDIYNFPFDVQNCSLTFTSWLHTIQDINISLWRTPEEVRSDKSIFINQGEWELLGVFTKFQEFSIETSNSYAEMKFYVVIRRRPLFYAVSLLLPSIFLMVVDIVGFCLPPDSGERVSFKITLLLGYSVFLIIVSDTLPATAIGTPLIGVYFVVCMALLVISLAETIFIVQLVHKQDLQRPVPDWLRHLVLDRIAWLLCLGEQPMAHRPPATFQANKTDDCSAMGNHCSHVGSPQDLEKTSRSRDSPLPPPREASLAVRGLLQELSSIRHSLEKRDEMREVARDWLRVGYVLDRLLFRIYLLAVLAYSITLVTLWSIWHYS
T1 sequence (Q9JJ16 whole entry): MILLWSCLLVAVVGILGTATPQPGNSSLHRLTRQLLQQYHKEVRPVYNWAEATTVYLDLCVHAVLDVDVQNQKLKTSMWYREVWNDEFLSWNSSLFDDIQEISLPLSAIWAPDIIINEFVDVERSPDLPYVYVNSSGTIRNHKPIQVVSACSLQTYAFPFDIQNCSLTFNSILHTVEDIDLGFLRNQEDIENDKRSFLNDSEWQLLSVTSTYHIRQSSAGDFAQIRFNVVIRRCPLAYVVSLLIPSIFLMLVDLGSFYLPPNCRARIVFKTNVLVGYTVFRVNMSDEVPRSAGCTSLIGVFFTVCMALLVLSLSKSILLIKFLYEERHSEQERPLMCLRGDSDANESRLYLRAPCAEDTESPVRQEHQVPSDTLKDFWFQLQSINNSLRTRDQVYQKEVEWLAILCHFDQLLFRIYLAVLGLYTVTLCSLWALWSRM
The assay can be described thus: Binding affinity for 5-HT3 receptor by displacement of [3H]-LY 278584 in rat cerebral cortex membranes. The assay is classed as cell membranes, Membrane.

Assay [2] concerns the target T2, 5-hydroxytryptamine receptor 1A (Rattus norvegicus, UniProt P19327).
T2 sequence (P19327 whole entry): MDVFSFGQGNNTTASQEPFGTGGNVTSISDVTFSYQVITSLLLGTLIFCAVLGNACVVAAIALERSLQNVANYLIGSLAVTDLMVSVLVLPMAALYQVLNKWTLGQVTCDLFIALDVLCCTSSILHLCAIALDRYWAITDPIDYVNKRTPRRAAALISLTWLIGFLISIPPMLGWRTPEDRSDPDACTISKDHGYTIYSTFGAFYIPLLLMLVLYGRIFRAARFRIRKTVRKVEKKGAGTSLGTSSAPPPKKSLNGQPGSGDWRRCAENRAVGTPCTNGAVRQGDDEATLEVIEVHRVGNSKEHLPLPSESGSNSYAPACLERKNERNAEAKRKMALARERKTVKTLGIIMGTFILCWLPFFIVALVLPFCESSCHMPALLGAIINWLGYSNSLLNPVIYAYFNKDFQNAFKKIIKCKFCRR
The assay can be described thus: Displacement of [3H]8-OH-DPAT from 5-hydroxytryptamine 1A receptor of rat cerebral cortex membranes. Format: cell membranes, Membrane. For orientation: Loss of bound radioactivity is the signal in a displacement assay; it reports binding, not function.

For the next assay, the species on record is Cavia porcellus. The assay can be described thus: Blockade of isolated longitudinal muscle myenteric plexus contraction from guinea-pig ileum. Format: functional. The following applies: Muscle tissue.

Broadly, the Ki is the equilibrium dissociation constant of an inhibitor or competing ligand from its target. With `COc1ccccc1N1CCN(Cc2nc3cccc(C(=O)NC4CN5CCC4CC5)c3[nH]2)CC1` (centres undefined), the Ki in assay [1] was found to be 10.3 nM; in assay [2], 150 nM.
For `O=C(NC1CN2CCC1CC2)c1cccc2[nH]c(CN3CCN(c4cccc(Cl)c4)CC3)nc12` (centres undefined) the same measures were 18.3 nM and > 10000 nM.
Consider `O=C(NC1CN2CCC1CC2)c1cccc2[nH]c(CN3CCN(c4cccc5ccccc45)CC3)nc12` (centres undefined), for which the Ki in assay [1] was 32.5 nM; in assay [2], > 1000 nM.
For `O=C(NC1CN2CCC1CC2)c1cccc2nc(CN3CCN(c4cccc5nc[nH]c45)CC3)[nH]c12` (centres undefined) the same measures were > 1000 nM and 148 nM.
For `O=C(NC1CN2CCC1CC2)c1cccc2nc(CN3CCN(c4ccccc4)CC3)[nH]c12` (centres undefined) the same measures were 23.1 nM and > 1000 nM.
In the same order, the values of `CCCOc1ccccc1N1CCN(Cc2nc3c(C(=O)NC4CN5CCC4CC5)cccc3[nH]2)CC1` (centres undefined) are 24.6 nM and 56.1 nM.
As to `CCCCOc1ccccc1N1CCN(Cc2nc3c(C(=O)NC4CN5CCC4CC5)cccc3[nH]2)CC1` (centres undefined), the Ki came out at 15.1 nM in assay [1] and 45.9 nM in assay [2].
For `CC(C)Oc1ccccc1N1CCN(Cc2nc3cccc(C(=O)NC4CN5CCC4CC5)c3[nH]2)CC1` (centres undefined) the same measures were 62.1 nM and 34.4 nM.
Take `O=C(NC1CN2CCC1CC2)c1cccc2[nH]c(CN3CCN(c4ccc5c(c4)OCO5)CC3)nc12` (centres undefined): the Ki was determined as 24 nM in assay [1] and 467 nM in assay [2].
As usually defined, the IC50 is the concentration at which inhibition is half-maximal. The low end stands for inhibition by little substance, the high end for a need for much substance. In the assay listed under Cavia porcellus, `CCOc1ccccc1N1CCN(Cc2nc3c(C(=O)NC4CN5CCC4CC5)cccc3[nH]2)CC1` (centres undefined) registered a half-inhibitory concentration (IC50) of 190 nM. Moreover, the results for the Ki in assay [1] and in assay [2] were 27.2 nM and 18 nM, respectively.
In the case of `Cc1nccn1CC1CCc2c(c3ccccc3n2C)C1=O` (centres undefined) [ONDANSETRON], in the assay listed under Cavia porcellus, 240 nM corresponded to half-maximal inhibition (IC50).
Consider `O=C(NC1CN2CCC1CC2)c1cccc2nc(CN3CCN(c4cccc(C(F)(F)F)c4)CC3)[nH]c12` (centres undefined), for which the Ki was 23.9 nM in assay [1] and > 10000 nM in assay [2].

The record behind these values is ChEMBL document CHEMBL1136226, “Design and synthesis of new benzimidazole-arylpiperazine derivatives acting as mixed 5-HT1A/5-HT3 ligands” (Bioorg Med Chem Lett, 2003).
